The target of one assay is T1, Aβ1-42 (Homo sapiens, UniProt P05067).
T1 construct: dissolving Aβ1-42 or Tau-RD3 (Tau repeat domain 3) monomers in DMSO
The assay can be described thus: Amyloid-beta disaggregation test by Thioflavin-T analysis. The format is biochemical. As to conditions: for EC50: Aβ1-42 50 µM aggregated 24 hours, then compound 0 - 500 µM for 48 hours at 37 °C, concentration disaggregating 50 % of aggregates vs control, read-out: EC50 (µM) Aβ; for disaggregation effect for amyloid-beta protein aggregates: statement in words summarising the Thioflavin-T results. As for the experimental part: (§1) Each compound was dissolved in DMSO to a concentration of 10 mM. Then, the compounds were diluted with 6 % DMSO (in DW) for use.
(§2) Amyloid-beta and tau solutions were prepared by dissolving Aβ1-42 or Tau-RD3 (Tau repeat domain 3) monomers in DMSO to a concentration of 10 mM. Then, the solutions were diluted to 100 µM with DW and stored on ice.
(§3) Meanwhile, Thioflavin-T was dissolved in 50 mM glycine buffer (pH 8.5) to a concentration of 5 mM. Then, the solution was diluted to 5 µM with 50 mM glycine buffer (pH 8.5) and stored in the dark, protected from light.
(§4) The amyloid-beta and tau solutions prepared in Example 1.1 were each placed in 1.5 mL microcentrifuge tubes to a concentration of 50 µM or 35 µM, respectively, and then reacted at 37 °C for 24 hours.
(§5) To each 1.5 mL microcentrifuge tube in which the amyloid-beta and tau aggregation was complete, the compounds were added at concentrations ranging from 500 µM down to 0 µM by serial dilution, and then further reacted at 37 °C for 48 hours.
(§6) 25 µL of each completed reaction solution was added to each well of a 96-well fluorescence analysis plate, and 75 µL of the Thioflavin-T solution was added to each well. After reacting for 5 minutes at room temperature in the dark, the fluorescence value was measured at 450 nm (excitation) and 485 nm (emission) using a multi-mode microplate reader.
(§7) The fluorescence value of the group (control group) treated with only amyloid-beta or tau and aggregated for 72 hours was designated as 100 %. The fluorescence values measured after treating the amyloid-beta and tau aggregates (formed by reacting for 24 hours) with each compound by concentration and reacting for an additional 48 hours were converted to relative values.

For assay [1], the target named is Tau-RD3 (Tau repeat domain 3) (Homo sapiens, UniProt P10636). The assay can be described thus: Tau disaggregation test by Thioflavin-T analysis. The format is biochemical. Particulars: for EC50: Tau-RD3 35 µM aggregated 24 hours, then compound 0 - 500 µM for 48 hours at 37 °C, concentration disaggregating 50 % of aggregates vs control, read-out: EC50 (µM) Tau; for disaggregation effect for tau protein aggregates: statement in words summarising the Thioflavin-T results. As for the experimental part: as §1, §2, §3, §4, §5, §6, §7
Tau-RD3 (Tau repeat domain 3), sequence (P10636 623-653 limits assumed): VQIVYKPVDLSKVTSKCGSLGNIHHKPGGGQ

T1 sequence (P05067 672-713 limits assumed): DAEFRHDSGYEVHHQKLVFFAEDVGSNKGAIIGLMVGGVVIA

As to `Cc1ncsc1C1=C(c2scnc2C)c2ccc(N3CCN(C)CC3)cc2C1=O` [Compound 79, 6-(4-methylpiperazin-1-yl)-2,3-bis(4-methylthiazol-5-yl)-1H-inden-1-one], the concentration giving a half-maximal response (EC50) (at Aβ1-42; in assay [1]) was 20 to 100 µM in each case.

Consider `COc1ccc2c(c1)C(=O)C(c1cncs1)=C2c1cncs1` [Compound 83-5, 6-methoxy-2,3-di(thiazol-5-yl)-1H-inden-1-one], for which the EC50 (on Aβ1-42; in assay [1]) was 20 to 100 µM each time.

Consider `CNC(=O)c1ccccc1C1=C(c2ccccc2C)c2ccccc2C1=O` [Compound 99, N-methyl-2-(1-oxo-3-(o-tolyl)-1H-inden-2-yl)benzamide], for which the EC50 (at Aβ1-42; in assay [1]) was above 250 µM in each case.

In the case of `Cc1ncsc1C1=C(c2c[nH]nn2)C(=O)c2cc(OCCCc3ccccc3)ccc21` [Compound 31, 3-(4-methylthiazol-5-yl)-6-(3-phenylpropoxy)-2-(1H-1,2,3-triazol-4-yl)-1H-inden-1-one], the EC50 (at Aβ1-42; in assay [1]) was below 20 µM throughout.

As to `Cc1cc(OCCCc2ccccc2)cc2c1C(c1scnc1C)=C(c1cccnc1)C2=O` [Compound 46, 4-methyl-3-(4-methylthiazol-5-yl)-6-(3-phenylpropoxy)-2-(pyridin-3-yl)-1H-inden-1-one], at Aβ1-42, the half-maximal effective concentration (EC50) (usually the concentration at which the effect is half-maximal) is below 20 µM and the “disaggregation effect for amyloid-beta protein aggregates” value was “remarkably excellent disaggregation effect”. Further, in assay [1], the EC50 is below 20 µM and the “disaggregation effect for tau protein aggregates” value was “remarkably excellent disaggregation effect”.

In the case of `Cc1scnc1C1=C(c2cccnc2)C(=O)c2cc(OCCCc3ccncc3)ccc21` [Compound 23, 3-(5-methylthiazol-4-yl)-2-(pyridin-3-yl)-6-(3-(pyridin-4-yl)propoxy)-1H-inden-1-one], on Aβ1-42, the EC50 is below 20 µM and the “disaggregation effect for amyloid-beta protein aggregates” value is recorded as “remarkably excellent disaggregation effect”. For the same compound, in assay [1], the EC50 is below 20 µM and the “disaggregation effect for tau protein aggregates” value is “remarkably excellent disaggregation effect”.

`O=C1C(c2cccc(N3CCOCC3)c2)=C(c2ccccc2)c2ccc(Cl)cc21` [Compound 73-7, 6-chloro-2-(3-morpholinophenyl)-3-phenyl-1H-inden-1-one]: the EC50 at Aβ1-42 was below 20 µM; in assay [1] it was above 250 µM.

For the compound `Cc1ccncc1C1=C(c2scnc2C)c2ccc(OCCCc3ccccc3)cc2C1=O` [Compound 21, 2-(4-methylpyridin-3-yl)-3-(4-methylthiazol-5-yl)-6-(3-phenylpropoxy)-1H-inden-1-one], on Aβ1-42, the concentration for a half-maximal effect (EC50) is below 20 µM and the “disaggregation effect for amyloid-beta protein aggregates” value is reported as “remarkably excellent disaggregation effect”. In assay [1], the EC50 was below 20 µM and the “disaggregation effect for tau protein aggregates” value is reported as “remarkably excellent disaggregation effect”.

With `Cc1ncsc1C1=C(c2cccnc2)C(=O)c2cc(OCCO)ccc21` [Compound 36, 6-(2-hydroxyethoxy)-3-(4-methylthiazol-5-yl)-2-(pyridin-3-yl)-1H-inden-1-one], the EC50 was 100 to 250 µM at Aβ1-42 and 20 to 100 µM in assay [1].

In the case of `Cn1cc(C2=C(c3cccnc3)C(=O)c3cc(O)ccc32)cn1` [Compound 42-7, 6-hydroxy-3-(1-methyl-1H-pyrazol-4-yl)-2-(pyridin-3-yl)-1H-inden-1-one], the EC50 was above 250 µM at Aβ1-42 and 100 to 250 µM in assay [1].

In the case of `Cc1cccc(C)c1C1=C(c2ccccc2)C(=O)c2cc(Cl)ccc21` [Compound 72-7, 6-chloro-3-(2,6-dimethylphenyl)-2-phenyl-1H-inden-1-one], the concentration for a half-maximal effect (EC50) on Aβ1-42 is below 20 µM; in assay [1], above 250 µM.

As for `COCCNc1ccc2c(c1)C(=O)C(c1cccnc1)=C2c1scnc1C` [Compound 54, 6-((2-methoxyethyl)amino)-3-(4-methylthiazol-5-yl)-2-(pyridin-3-yl)-1H-inden-1-one], the EC50 (at Aβ1-42; in assay [1]) was above 250 µM throughout.

For `Cc1ncsc1C1=C(c2cn[nH]c2)C(=O)c2cc(OCCCc3ccccc3)ccc21` [Compound 27, 3-(4-methylthiazol-5-yl)-6-(3-phenylpropoxy)-2-(1H-pyrazol-4-yl)-1H-inden-1-one], at Aβ1-42, the concentration giving a half-maximal response (EC50) was below 20 µM and the “disaggregation effect for amyloid-beta protein aggregates” value is “remarkably excellent disaggregation effect”. Also, in assay [1], the EC50 is below 20 µM and the “disaggregation effect for tau protein aggregates” value is listed as “remarkably excellent disaggregation effect”.

Take `Cc1ccccc1C1=C(c2ccccc2)c2ccccc2C1=O` [Compound 6, 3-phenyl-2-(o-tolyl)-1H-inden-1-one]: the EC50 is 20 to 100 µM on Aβ1-42 and above 250 µM in assay [1].

In the case of `CC(C)(C)c1cc(C2=C(c3ccccc3)C(=O)c3ccccc32)cc(C(C)(C)C)c1` [Compound 96, 3-(3,5-di-tert-butylphenyl)-2-phenyl-1H-inden-1-one], the EC50 (on Aβ1-42; in assay [1]) was above 250 µM each time.

Turning to `Cc1ncsc1C1=C(c2cccnc2)C(=O)c2cc(SCCCc3ccccc3)ccc21` [Compound 57, 3-(4-methylthiazol-5-yl)-6-((3-phenylpropyl)thio)-2-(pyridin-3-yl)-1H-inden-1-one], on Aβ1-42, the EC50 was below 20 µM and the “disaggregation effect for amyloid-beta protein aggregates” value is given as “remarkably excellent disaggregation effect”. Moreover, in assay [1], the EC50 was below 20 µM and the “disaggregation effect for tau protein aggregates” value is “remarkably excellent disaggregation effect”.

In the case of `O=C1C(c2ccccc2)=C(c2ccccc2)c2ccc(Cl)cc21` [Compound 12-3, 6-chloro-2,3-diphenyl-1H-inden-1-one], the EC50 at Aβ1-42 was 100 to 250 µM; in assay [1], above 250 µM.

As for `Cc1ncsc1C1=C(c2ccncc2)C(=O)c2cc(O)ccc21` [Compound 39-3, 6-hydroxy-3-(4-methylthiazol-5-yl)-2-(pyridin-4-yl)-1H-inden-1-one], the EC50 (at Aβ1-42; in assay [1]) was above 250 µM throughout.

On to `Cc1ncsc1C1=C(C#N)C(=O)c2cc(OCCCc3ccccc3)ccc21` [Compound 34, 3-(4-methylthiazol-5-yl)-1-oxo-6-(3-phenylpropoxy)-1H-indene-2-carbonitrile], for which the EC50 on Aβ1-42 was above 250 µM; in assay [1] it was 100 to 250 µM.

`Cc1ncsc1C1=C(c2cccnc2)C(=O)c2cc(N(C)C)ccc21` [Compound 62, 6-(dimethylamino)-3-(4-methylthiazol-5-yl)-2-(pyridin-3-yl)-1H-inden-1-one]: the EC50 (on Aβ1-42; in assay [1]) was above 250 µM throughout.

Turning to `Cc1ncsc1C1=C(c2cccnc2)C(=O)c2cc(N(C)CCCc3ccccc3)ccc21` [Compound 38, 6-(methyl(3-phenylpropyl)amino)-3-(4-methylthiazol-5-yl)-2-(pyridin-3-yl)-1H-inden-1-one], the values for the EC50 (at Aβ1-42; in assay [1]) were below 20 µM and above 250 µM, respectively.

As for `COc1ccc2c(c1)C(=O)C(c1cnccc1C)=C2c1scnc1C` [Compound 22, 6-methoxy-2-(4-methylpyridin-3-yl)-3-(4-methylthiazol-5-yl)-1H-inden-1-one], the values for the EC50 (on Aβ1-42; in assay [1]) were above 250 µM and 20 to 100 µM, respectively.

On to `Cc1ncsc1C1=C(c2cccnc2)C(=O)c2cc(NCCOc3ccccc3)ccc21` [Compound 55, 3-(4-methylthiazol-5-yl)-6-((2-phenoxyethyl)amino)-2-(pyridin-3-yl)-1H-inden-1-one], for which the EC50 on Aβ1-42 is below 20 µM; in assay [1], above 250 µM.

The record behind these values is patent EP4745117A1, “NOVEL INDENONE DERIVATIVE AND USE THEREOF” (Amyloid Solution Inc., priority 2023, dated 2025).
